Measured values from PubChem BioAssay (NCI).
Where “and” joins values, the source holds several entries; their conditions need not be identical. Equal values may be shown once.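 A five-concentration, 48-hour dose response in 96-well plates underlies each endpoint, interpolated linearly between surrounding concentrations. The concentration for 50% growth inhibition is given as GI50. TGI marks complete inhibition of growth.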

What was measured:
Assay in all cases: NCI anticancer screen, dose series, 48 h
[1] = tested on: SF-268 CNS
[2] = tested on: SF-539 CNS
[3] = tested on: SK-MEL-2 melanoma
[4] = tested on: SN12C renal
[5] = tested on: SW-620 colon
[6] = tested on: U251 CNS
[7] = tested on: SR leukemia
[8] = tested on: BT-549 breast
[9] = tested on: MCF7 breast
[10] = tested on: PC-3 prostate

| SMILES | TGI [1] | TGI [2] | TGI [3] | TGI [4] | TGI [5] | TGI [6] | TGI [7] | GI50 [8] | TGI [8] | GI50 [9] | TGI [9] | GI50 [1] | GI50 [2] | GI50 [3] | GI50 [4] | GI50 [5] | GI50 [6] | GI50 [10] | TGI [10] | GI50 [7] |
| --- | --- | --- | --- | --- | --- | --- | --- | --- | --- | --- | --- | --- | --- | --- | --- | --- | --- | --- | --- | --- |
| Cc1ccc(-n2c3nc(=O)n(C)c(=O)c-3nc3ccccc32)c(C)c1 | 34.8 µM | 26.4 µM | 27.5 µM | 22.8 µM | 19.1 µM | 32.1 µM |  |  |  |  |  |  |  |  |  |  |  |  |  |  |
| CC(C)(C)OC(=O)N[C@H]1CC(=O)c2ccccc2N(CC(=O)O)C1=O | > 100 µM | > 100 µM | > 100 µM | > 100 µM | > 100 µM |  |  |  |  |  |  |  |  |  |  |  |  |  |  |  |
| O=C(Nc1ccccc1C(=O)NC(=O)c1ccccc1NC(=O)c1ccccc1)c1ccccc1 | 22.2 µM | 18.9 µM | 3.93 µM | 17.2 µM | 18.6 µM | 18.8 µM | 8.52 µM |  |  |  |  |  |  |  |  |  |  |  |  |  |
| COC(=O)[C@]12CC[C@@H](C)[C@H](C)[C@@H]1C1=CC[C@@H]3[C@@]4(C)C(C=O)=C[C@@](C)(COS(C)(=O)=O)C4=CC[C@@]3(C)[C@]1(C)CC2 | 0.721 µM | 0.451 µM | 0.497 µM | 1.92 µM | 0.484 µM | 0.606 µM |  | 0.211 µM | 0.63 µM | 0.265 µM | 1.37 µM | 0.248 µM | 0.207 µM | 0.226 µM | 0.339 µM | 0.209 µM | 0.23 µM |  |  |  |
| O=c1c2ccccc2nc(-c2cccc(Cl)c2)n1NC1OC(CO)C(O)C(O)C1O (stereo not drawn) | > 100 µM | > 100 µM | > 100 µM | > 100 µM | > 100 µM | > 100 µM |  |  |  |  |  |  |  |  |  |  |  |  |  |  |
| OCC1OC(OC2(CO)OC(CO)C(O)C2O)C(O)C(O)C1O (stereo not drawn) | > 100 µM | > 100 µM | > 100 µM | > 100 µM | > 100 µM | > 100 µM | > 100 µM | > 100 µM | > 100 µM |  |  | > 100 µM | > 100 µM | > 100 µM | > 100 µM | > 100 µM | > 100 µM | > 100 µM | > 100 µM | > 100 µM |
| Cc1ccc2ccc3c4ccccc4ccc3c2c1 | > 100 µM | > 100 µM | 41.8 µM | > 100 µM | > 100 µM | > 100 µM |  | 30.9 µM | > 100 µM | 15.5 µM | 39.3 µM | 32.1 µM | 47.7 µM | 19 µM | 27 µM | 25.9 µM | 28.3 µM | 30.4 µM | > 100 µM |  |
| O=[N+]([O-])c1cccnc1S(=O)(=O)c1ccccc1 | 27.3 µM | 24 µM | 31.1 µM | 23.5 µM | 8.38 µM | 22.8 µM | > 100 µM |  |  |  |  |  |  |  |  |  |  |  |  |  |
| [O-][n+]1c2cccc(O)c2[n+]([O-])c2cccc(O)c21 | > 100 µM | > 100 µM |  |  | > 100 µM | > 100 µM |  |  | > 100 µM |  | > 100 µM |  |  |  |  |  |  |  | > 100 µM |  |
| COC(=O)C1CCC(C)CC1=O (stereo not drawn) | > 100 µM | > 100 µM | > 100 µM | > 100 µM | > 100 µM | > 100 µM |  |  |  |  |  |  |  |  |  |  |  |  |  |  |
| C[n+]1cn(CC(=O)c2ccccc2)c(C(N)=O)c1N | > 100 µM | > 100 µM | > 100 µM | > 100 µM | 29.4 µM | > 100 µM | > 100 µM |  |  |  |  |  |  |  |  |  |  |  |  |  |
| CCCCCCCCCCCCCC(=O)O[C@H]1CC[C@H](NC(=O)[C@H](OC)[C@H](O)[C@@H](O)[C@H](O)/C=C/C(C)C)C(=O)N(C)C1 | 15 µM and 2.38 µM | 15 µM and > 23.8 µM | 15 µM and 6.33 µM | 15 µM and 4.84 µM | 15 µM and 5.48 µM | 15 µM and 3.06 µM | 2.46 µM |  |  |  |  | 0.0235 µM | 0.0126 µM | 0.0156 µM | 0.00238 µM | 0.00238 µM | < 0.0015 µM |  |  |  |
| O=C1c2cccc3c(N4CCOCC4)ccc(c23)C(=O)N1CCN1CCN(CCCCCN2CCN(CCN3C(=O)c4cccc5c(N6CCOCC6)ccc(c45)C3=O)CC2)CC1 | > 100 µM | > 100 µM |  | > 100 µM | > 100 µM | > 100 µM |  | > 100 µM | > 100 µM | 77.6 µM | > 100 µM | > 100 µM | > 100 µM |  | 57.4 µM | 70.8 µM | > 100 µM | > 100 µM | > 100 µM |  |
| CC(C)N(C(=O)C12C3C4C1C1C4(C#N)C3C12C(=O)O)C(C)C (stereo not drawn) | > 100 µM | > 100 µM | > 100 µM | > 100 µM | > 100 µM | > 100 µM | 41.4 µM |  |  |  |  |  |  |  |  |  |  |  |  |  |
| COc1ccc(/C=C/C(=O)c2c(-c3ccccc3)nn(C)c(=O)c2N2CCCCC2)cc1 | 66.1 µM | 37.8 µM |  | 64.2 µM | > 100 µM | 30.1 µM |  |  |  |  |  |  |  |  |  |  |  |  |  |  |
| N#Cc1c(-c2ccccc2)c(-c2ccccc2)cc2c(=O)c3ccc(Cl)cc3[nH]c12 | > 100 µM | > 100 µM | > 100 µM | > 100 µM | > 100 µM | > 100 µM | > 100 µM |  |  |  |  |  |  |  |  |  |  |  |  |  |
| OC1=CN=C(c2ccccc2)Oc2ccccc21 | > 100 µM | 38.7 µM | > 100 µM | > 100 µM | > 100 µM | > 100 µM |  |  |  |  |  |  |  |  |  |  |  |  |  |  |
| O=C1C2C(C(=O)N1Cc1ccccc1)N(Cc1ccccc1)C(=O)N2Cc1ccccc1 (stereo not drawn) | > 100 µM | > 100 µM |  | > 100 µM | > 100 µM | > 100 µM | > 100 µM |  |  |  |  |  |  |  |  |  |  |  |  |  |
| O=C1OC(=O)c2c1nc1ccccc1c2-c1ccccc1 | > 100 µM | > 100 µM | > 100 µM | > 100 µM | > 100 µM | > 100 µM | > 100 µM |  |  |  |  |  |  |  |  |  |  |  |  |  |
| NC1=NC(c2ccccc2Cl)c2c(n[nH]c2N)N1 (stereo not drawn) | > 100 µM | > 100 µM | > 100 µM | > 100 µM | > 100 µM | > 100 µM |  | 27.4 µM | > 100 µM | 7.09 µM | > 100 µM | 26.9 µM | 57 µM | 65.3 µM | 8.35 µM | 18.9 µM | 28 µM | 85.8 µM | > 100 µM |  |
